Among the data in article PMC4579270, “Identification and Characterization of an Irreversible Inhibitor of CDK2” (Chemistry & Biology, 2015) are remaining activity values, retold here.

The structures appear in SMILES notation.

The target of one assay is T1, ASK1 (Homo sapiens, UniProt Q99683).
T1 sequence (Q99683 1-1374): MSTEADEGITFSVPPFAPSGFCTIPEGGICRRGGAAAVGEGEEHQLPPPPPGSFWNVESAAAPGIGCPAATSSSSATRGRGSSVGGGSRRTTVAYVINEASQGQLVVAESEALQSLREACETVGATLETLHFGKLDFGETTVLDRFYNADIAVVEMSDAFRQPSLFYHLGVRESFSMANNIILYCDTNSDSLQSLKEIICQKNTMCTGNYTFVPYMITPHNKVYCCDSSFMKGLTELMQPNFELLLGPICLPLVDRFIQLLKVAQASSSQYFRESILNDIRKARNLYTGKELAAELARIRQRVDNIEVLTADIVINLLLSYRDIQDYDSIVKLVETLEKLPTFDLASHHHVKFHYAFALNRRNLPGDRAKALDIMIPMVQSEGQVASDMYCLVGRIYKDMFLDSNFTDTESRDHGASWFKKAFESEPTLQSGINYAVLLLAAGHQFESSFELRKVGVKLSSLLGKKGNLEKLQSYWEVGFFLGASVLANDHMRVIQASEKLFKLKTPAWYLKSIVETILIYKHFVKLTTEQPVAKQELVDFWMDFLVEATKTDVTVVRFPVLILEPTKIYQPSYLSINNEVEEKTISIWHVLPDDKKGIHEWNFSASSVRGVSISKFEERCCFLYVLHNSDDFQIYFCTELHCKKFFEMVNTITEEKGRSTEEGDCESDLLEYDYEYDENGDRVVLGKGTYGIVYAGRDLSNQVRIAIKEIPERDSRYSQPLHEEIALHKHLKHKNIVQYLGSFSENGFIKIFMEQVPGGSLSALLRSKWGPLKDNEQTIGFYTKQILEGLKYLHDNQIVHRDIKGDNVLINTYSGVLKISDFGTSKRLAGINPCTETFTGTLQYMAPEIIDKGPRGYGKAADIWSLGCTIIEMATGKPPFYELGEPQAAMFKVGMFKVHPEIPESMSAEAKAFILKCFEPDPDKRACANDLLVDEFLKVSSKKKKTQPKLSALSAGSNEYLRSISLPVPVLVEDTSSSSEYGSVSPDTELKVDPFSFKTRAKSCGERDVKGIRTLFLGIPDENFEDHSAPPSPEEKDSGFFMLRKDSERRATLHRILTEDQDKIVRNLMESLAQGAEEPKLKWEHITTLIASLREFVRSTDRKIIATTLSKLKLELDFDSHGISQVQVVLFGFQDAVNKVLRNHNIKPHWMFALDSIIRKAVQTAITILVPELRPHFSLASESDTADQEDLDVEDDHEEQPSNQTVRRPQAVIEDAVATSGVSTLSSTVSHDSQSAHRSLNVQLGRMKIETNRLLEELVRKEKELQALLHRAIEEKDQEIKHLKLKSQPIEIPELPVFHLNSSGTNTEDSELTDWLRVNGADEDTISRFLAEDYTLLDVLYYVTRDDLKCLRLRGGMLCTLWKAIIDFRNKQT
The assay can be described thus: Dundee protein kinase screen. Type of assay: biochemical. As to conditions: ASK1, 1µM; read-out: %Remaining activity at 1µM NU6300. Put shortly:
(§1)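 Selectivity panel of 131 protein kinases, inhibitor tested at a single concentration of 1 µM; values are % kinase activity remaining, mean of duplicates. Re-test of selected kinases used 0.5 µM in the standard format and again after a 4 hour pre-incubation with the inhibitor.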

A further assay deals with TIE2 (Homo sapiens, UniProt Q02763). The assay can be described thus: Dundee protein kinase screen. It is filed as biochemical. The conditions noted are these: TIE2, 1µM; read-out: %Remaining activity at 1µM NU6300. The method in brief:
as §1

Chain of TIE2 (Q02763 23-1124): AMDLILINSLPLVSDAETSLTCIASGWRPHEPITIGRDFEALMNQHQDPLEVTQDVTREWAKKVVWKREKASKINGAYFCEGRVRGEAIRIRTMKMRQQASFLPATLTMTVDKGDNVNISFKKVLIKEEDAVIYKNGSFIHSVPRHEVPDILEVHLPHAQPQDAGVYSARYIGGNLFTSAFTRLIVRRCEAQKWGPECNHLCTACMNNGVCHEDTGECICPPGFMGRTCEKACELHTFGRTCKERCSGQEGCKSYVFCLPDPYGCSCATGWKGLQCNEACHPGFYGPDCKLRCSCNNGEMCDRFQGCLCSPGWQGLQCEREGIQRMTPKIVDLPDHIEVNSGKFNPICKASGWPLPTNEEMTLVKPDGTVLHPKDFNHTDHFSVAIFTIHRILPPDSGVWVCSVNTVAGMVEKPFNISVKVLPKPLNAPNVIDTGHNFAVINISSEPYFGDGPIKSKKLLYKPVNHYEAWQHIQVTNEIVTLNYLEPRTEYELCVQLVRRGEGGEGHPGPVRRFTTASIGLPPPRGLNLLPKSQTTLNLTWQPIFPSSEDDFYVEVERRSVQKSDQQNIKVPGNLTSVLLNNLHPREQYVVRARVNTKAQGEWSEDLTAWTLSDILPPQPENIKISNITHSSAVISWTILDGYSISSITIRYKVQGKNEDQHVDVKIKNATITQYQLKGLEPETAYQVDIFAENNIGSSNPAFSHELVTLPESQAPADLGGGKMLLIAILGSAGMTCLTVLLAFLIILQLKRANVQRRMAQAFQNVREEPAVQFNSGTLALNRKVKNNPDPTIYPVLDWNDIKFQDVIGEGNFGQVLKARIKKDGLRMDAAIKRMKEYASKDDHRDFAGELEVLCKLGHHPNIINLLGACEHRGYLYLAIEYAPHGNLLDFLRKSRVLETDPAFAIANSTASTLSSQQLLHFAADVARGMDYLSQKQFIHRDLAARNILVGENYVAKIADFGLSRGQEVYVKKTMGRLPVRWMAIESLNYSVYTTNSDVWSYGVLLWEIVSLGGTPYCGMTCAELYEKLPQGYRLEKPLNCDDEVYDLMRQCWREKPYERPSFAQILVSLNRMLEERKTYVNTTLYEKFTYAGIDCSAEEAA

`C=CS(=O)(=O)c1ccc(Nc2nc(OCC3CCCCC3)c3nc[nH]c3n2)cc1` [NU6300, 6-(cyclohexylmethoxy)-N-(4-(vinylsulfonyl)phenyl)-9H-purin-2-amine]: the remaining activity at 1 µM on ASK1 was determined as 49%; on TIE2, 122%.
